# From patent publication US5661153A, “1-arylpyrimidine derivatives and pharmaceutical use thereof” (Japan Energy Corporation, priority 1994, dated 1997)
# Where two headings read alike, the source gives them in different places.
# Legend:
# [1] = test system: picryl chloride-induced type IV allergy; assay: Inhibiting effect on a picryl chloride-induced type IV allergy (1-aryluracil derivatives); assay type: in vivo, male ICR strain mice; details: Mus musculus, po, read-out: Percent Inhibition; for inhibition in vivo at 100 mg/kg: 100 mg/kg orally twice (just after induction and 16 hours after)
# Description: (§1) The abdomen of 6-weeks old male ICR strain mice was shaven and 0.1 ml of a 7% picryl chloride solution in acetone was applied to the epithelium of the abdomen for immunization. After one week, 5 μl of a 1% picryl chloride solution in olive oil was applied to both sides of the left auricula to induce an allergy reaction. A given amount of a test substance was suspended in a 0.5% CMC-Na solution and the resulting suspension was administered orally to each mouse twice, i.e., just after the induction and 16 hours after. The thickness of the left auricula was measured both before the induction and 24 hours after.
# (§2) The difference between the thickness of the left auricula before the induction and the value measured 24 hours after was calculated as the increase in thickness. Using a reference group to which only a 0.5% CMC-Na solution was administered orally, a reference value for the increase in thickness was obtained. The percent inhibition was determined as 100% when the increase in thickness was zero and as 0% when the increase in thickness was equal to the reference value. On the basis of these criteria, the percent inhibition of each test substance was calculated at varying doses.
# [2] = Toxicity Test (Experimental Example 1, 1-aryluracil derivatives); assay type: in vivo, male SD rats; details: 1,000 mg/kg orally once a day for 2 consecutive weeks
# Description: (§3) A test substance was suspended in a 0.5% CMC-Na solution and administered orally to 6-weeks old male SD rats once a day at a dose of 1,000 mg/kg for 2 consecutive weeks. The weight of each rat was measured both before the administration and every day during the administration. A given amount of blood was collected on the day after the end of the administration period and examined. Collected urine was also examined. In addition, organs were checked for any aberrations by autopsy.
# [3] = test system: picryl chloride-induced type IV allergy; assay: Inhibiting effect on a picryl chloride-induced type IV allergy (3-arylpurine derivatives); assay type: in vivo, male ICR strain mice; details: left auricula thickness at 24 hours
# Description: as §1, §2
# [4] = Toxicity Test (Experimental Example 2, 3-arylpurine derivatives); assay type: in vivo, male SD rats; details: 1,000 mg/kg orally once a day for 2 consecutive weeks
# Description: as §3
# [5] = test system: passive cutaneous anaphylaxis (PCA) reaction; assay: Inhibiting effect on a 48 hour PCA reaction (test method for compound prepared in Example 1); assay type: in vivo, male Wistar strain rats; details: dye leakage
# Description: (§4) Eight-weeks old male Wistar strain rats were immunized by subcutaneously injecting 0.05 ml of 50-fold diluted DNP-Ascaris antiserum (titer=1:64) at four positions on the dorsum. Forty-eight hours after the immunization, 1 ml of a 0.5% Evans blue solution containing 1 mg of DNP-Ascaris antigen was administered into a tail vein to induce a PCA reaction. Thirty minutes after the induction, the rats were bled to death and blue circular parts appearing at the immunized positions were excised. The dye was extracted from the blue circular parts with ethyl acetate and the amount of the dye leakage was determined. A test substance was suspended in a 0.5% CMC-Na solution and administered orally to each rat 1 hour before the induction.
# (§5) Using a reference group to which only a 0.5% CMC-Na solution was administered orally, a reference value for the amount of dye leakage was obtained. The percent inhibition was determined as 100% when the amount of dye leakage was zero and as 0% when the amount of dye leakage was equal to the reference value. On the basis of these criteria, the percent inhibition of each test substance was calculated at varying doses.
# [6] = test system: passive cutaneous anaphylaxis (PCA) reaction; assay: Inhibiting effect on a 48 hour PCA reaction (test method for compound prepared in Example 22); assay type: in vivo, male Wistar strain rats; details: 100 mg/kg orally 30 minutes before the induction; dye leakage
# Description: as §4, with “0.1” for “0.05”, “700-fold” for “50-fold”, “(titer=1:1024)” for “(titer=1:64)”, “two” for “four”, “pedal” for “tail”, “at a dose of 100 mg/kg 30 minutes” for “1 hour”
# as §5
# [7] = 10 mg/kg orally twice (just after induction and 16 hours after), left auricula thickness at 24 hours
# [8] = 10 mg/kg orally twice (just after induction and 16 hours after)
# [9] = left auricula thickness at 24 hours
# [10] = 100 mg/kg orally twice (just after induction and 16 hours after)
structure (smiles),measurement,setting,value
"COc1ccc(O)c(C(=O)Nc2c(N)n(-c3ccccc3)c(=O)n(C)c2=O)c1 [Example 53, 6-Amino-5-(2-hydroxy-5-methoxyphenyl)carboxyamido-3-methyl-1-phenyluracil]",inhibition in vivo at 10 mg/kg,[1]; [7],45%
same,autopsy,[2],no abnormality was observed
same,blood examination,[2],no abnormality was observed
same,death during the administration period,[2],no rat died
same,urine examination,[2],no abnormality was observed
same,weight change,[2],no abnormality was observed
"Cn1c(=O)c2[nH]c(-c3cc(C(C)(C)C)c(O)c(C(C)(C)C)c3)nc2n(-c2ccccc2)c1=O [Example 74, 8-(3,5-Di-tert-butyl-4-hydroxyphenyl)-1-methyl-3-phenylpurine-2,6-dione]",Percent Inhibition,[3]; [8],38%
same,autopsy,[4],no abnormality was observed
same,blood examination,[4],no abnormality was observed
same,death during the administration period,[4],no rat died
same,urine examination,[4],no abnormality was observed
same,weight change,[4],no abnormality was observed
"COc1ccc(-n2c(N)c(NC(=O)c3cc(OC)ccc3OC(C)=O)c(=O)n(C)c2=O)cc1 [Example 55, 5-(2-Acetoxy-5-methoxyphenyl)carboxyamido-6-amino-1-(4-methoxyphenyl)-3-methyluracil]",inhibition in vivo at 100 mg/kg,[1]; [9],35%
"Cn1c(=O)c(NC(=O)c2cc(C(C)(C)C)c(O)c(C(C)(C)C)c2)c(N)n(-c2ccccc2)c1=O [Example 1, 6-Amino-5-(3,5-di-tert-butyl-4-hydroxyphenyl)carboxyamido-3-methyl-1-phenyluracil]",inhibition in vivo at 10 mg/kg,[1]; [7],54%
same,Percent Inhibition,[5]; 3 mg/kg orally 1 hour before the induction,33%
same,Percent Inhibition,[5]; 30 mg/kg orally 1 hour before the induction,49%
"CC(=O)Oc1cc(OC(C)=O)cc(C(=O)Nc2c(N)n(-c3ccccc3)c(=O)n(C)c2=O)c1 [Example 7, 6-Amino-5-(3,5-diacetoxyphenyl)carboxyamido-3-methyl-1-phenyluracil]",inhibition in vivo at 10 mg/kg,[1]; [7],65%
same,autopsy,[2],no abnormality was observed
same,blood examination,[2],no abnormality was observed
same,death during the administration period,[2],no rat died
same,urine examination,[2],no abnormality was observed
same,weight change,[2],no abnormality was observed
"COc1ccc(-n2c(N)c(NC(=O)c3cc(C(C)(C)C)c(O)c(C(C)(C)C)c3)c(=O)n(C)c2=O)cc1 [Example 4, 6-Amino-5-(3,5-di-tert-butyl-4-hydroxyphenyl)carboxyamido-1-(4-methoxyphenyl)-3-methyluracil]",inhibition in vivo at 10 mg/kg,[1]; [7],35%
"COc1ccc(/C=C/C(=O)Nc2ccccc2C(=O)O)cc1OC [Tranilast, tranilast, reference compound]",Percent Inhibition,[6],35%
same,Percent Inhibition,[5]; 100 mg/kg orally 1 hour before the induction,66%
"CC(=O)Oc1cc(-c2nc3c([nH]2)c(=O)n(C)c(=O)n3-c2ccccc2)cc(OC(C)=O)c1OC(C)=O [Example 80, 1-Methyl-3-phenyl-8-(3,4,5-triacetoxyphenyl)purine-2,6-dione]",Percent Inhibition,[3]; [8],37%
same,Percent Inhibition,[3]; [10],53%
"COc1ccc(-n2c(=O)n(C)c(=O)c3[nH]c(-c4cc(C(C)(C)C)c(O)c(C(C)(C)C)c4)nc32)cc1 [Example 75, 8-(3,5-Di-tert-butyl-4-hydroxyphenyl)-3-(4-methoxyphenyl)-1-methylpurine-2,6-dione]",Percent Inhibition,[3]; [8],16%
same,Percent Inhibition,[3]; [10],34%
"Cn1c(=O)c(NC(=O)C2(C)CCCCC2)c(N)n(-c2ccccc2)c1=O [Example 61, 6-Amino-3-methyl-5-(1-methylcyclohexyl)carboxyamido-1-phenyluracil]",inhibition in vivo at 100 mg/kg,[1]; [9],32%
"Cn1c(=O)c(NC(=O)c2ccc(=O)oc2)c(N)n(-c2ccccc2)c1=O [Example 52, 6-Amino-3-methyl-5-(2-oxo-2H-pyran-5-yl)carboxyamido-1-phenyluracil]",inhibition in vivo at 10 mg/kg,[1]; [7],19%
same,inhibition in vivo at 100 mg/kg,[1]; [9],39%
"CC(=O)Oc1ccc(C(=O)Nc2c(N)n(-c3ccccc3)c(=O)n(C)c2=O)cc1OC(C)=O [Example 34, 6-Amino-5-(3,4-diacetoxyphenyl)carboxyamido-3-methyl-1-phenyluracil]",inhibition in vivo at 10 mg/kg,[1]; [7],33%
same,inhibition in vivo at 100 mg/kg,[1]; [9],52%
"Cn1c(=O)c(NC(=O)c2cc(=O)cco2)c(N)n(-c2ccccc2)c1=O [Example 51, 6-Amino-3-methyl-5-(4-oxo-4H-pyran-2-yl)carboxyamido-1-phenyluracil]",inhibition in vivo at 10 mg/kg,[1]; [7],45%
"CC(=O)Oc1cc(OC(C)=O)cc(C(=O)Nc2c(N)n(-c3ccc(F)cc3)c(=O)n(C)c2=O)c1 [Example 8, 6-Amino-5-(3,5-diacetoxyphenyl)carboxyamido-1-(4-fluorophenyl)-3-methyluracil]",inhibition in vivo at 10 mg/kg,[1]; [7],43%
"Cn1c(=O)c(NC(=O)c2cc(O)cc(O)c2)c(N)n(-c2ccccc2)c1=O [Example 14, 6-Amino-5-(3,5-dihydroxyphenyl)carboxyamido-3-methyl-1-phenyluracil]",inhibition in vivo at 10 mg/kg,[1]; [7],45%
"Cn1c(=O)c(NC(=O)c2cc(C(C)(C)C)c(O)c(C(C)(C)C)c2)c(N)n(-c2ccc(F)cc2)c1=O [Example 2, 6-Amino-5-(3,5-di-tert-butyl-4-hydroxyphenyl)carboxyamido-1-(4-fluorophenyl)-3-methyluracil]",inhibition in vivo at 3 mg/kg,"[1]; 3 mg/kg orally twice (just after induction and 16 hours after), left auricula thickness at 24 hours",38%
"Cn1c(=O)c2[nH]c(-c3ccc(O)c(O)c3)nc2n(-c2ccccc2)c1=O [Example 78, 8-(3,4-Dihydroxyphenyl)-1-methyl-3-phenylpurine-2,6-dione]",Percent Inhibition,[3]; [8],35%
"CCCn1c(=O)c(NC(=O)c2cc(OC(C)=O)cc(OC(C)=O)c2)c(N)n(-c2ccccc2)c1=O [Example 11, 6-Amino-5-(3,5-diacetoxyphenyl)carboxyamido-1-phenyl-3-propyluracil]",inhibition in vivo at 100 mg/kg,[1]; [9],30%
"Cc1ccc(-n2c(N)c(NC(=O)c3cc(C(C)(C)C)c(O)c(C(C)(C)C)c3)c(=O)n(C)c2=O)cc1 [Example 3, 6-Amino-5-(3,5-di-tert-butyl-4-hydroxyphenyl)carboxyamido-3-methyl-1-(4-methylphenyl)uracil]",inhibition in vivo at 10 mg/kg,[1]; [7],33%
"C[C@]12C=CC(=O)C=C1CC[C@@H]1[C@@H]2[C@@H](O)C[C@@]2(C)[C@H]1CC[C@]2(O)C(=O)CO [Prednisolone, prednisolone, reference compound]",inhibition in vivo at 10 mg/kg,[1]; 24 h,77%
same,Percent Inhibition,[3]; [8],67%
"CC(=O)Oc1cc(C(=O)Nc2c(N)n(-c3ccccc3)c(=O)n(C)c2=O)cc(OC(C)=O)c1OC(C)=O [Example 22, 6-Amino-3-methyl-1-phenyl-5-(3,4,5-triacetoxyphenyl)carboxyamidouracil]",inhibition in vivo at 10 mg/kg,[1]; [7],48%
same,inhibition in vivo at 100 mg/kg,[1]; [9],72%
same,Percent Inhibition,[6],50%
"CC1CCC(C(=O)Nc2c(N)n(-c3ccccc3)c(=O)n(C)c2=O)CC1 (centres unmarked) [Example 60, 6-Amino-3-methyl-5-(4-methylcyclohexyl)carboxyamido-1-phenyluracil]",inhibition in vivo at 10 mg/kg,[1]; [7],40%
